Source: patent US9605013B2, “Derivatives of hemin with antibacterial and antiviral activity” (OBSCHESTVO S OGRANICHENNOI OTVETSTVENNOSTIYU …, priority 2011, dated 2017)

What was measured:
Format in all cases: cell-based
[1] = system: Enterococcus faecalis No. 559; assay: Antibacterial specific activity, twofold dilutions, visual growth evaluation; details: E. faecalis 559; 36° C., 24 hours
In short: (§1)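 Twofold serial broth dilutions, inoculum 5×10^5 CFU/ml, compounds from water or DMSO stocks; 24 h at 36° C. MIC taken visually as last dilution suppressing growth versus compound-free growth control.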

[2] = system: Vancomycin-resistant Enterococcus faecium 569; assay: as above; details: Vancomycin-resistant E. faecium 569; 36° C., 24 hours
In short: as §1

[3] = system: Herpes Simplex Virus type 2 strain G (No. VR-734 ATCC); assay: Antiviral activity, virus cytopathogenic action in Vero cells; set-up: key: 0: CPA (cytopathogenic action) is not detected; 1: up to 25% virus-infected monolayer; from 25% to 50%; 3: from 50% to 75%; 4: from 75% to 100%; details: 48 hours
Procedure: […] used in the study were used Herpes Simplex Virus type 1 (the Collection of Microorganisms at the Scientific Research Institute of Virology, strain EC), Herpes Simplex Virus type 2 strain G (No. VR-734 ATCC), and human cytomegalovirus strain AD169 (No. VR-538 ATCC). Herpes Simplex viruses type 1 and type 2 were cultured in Vero cells. The cells were incubated in MEM Eagle growth medium (MEM, BioloT, St-Petersburg, 1.3.3) supplemented with 10% fetal bovine serum (BioloT, St-Petersburg, 1.3.12) in Sanyo MCO-15AC gas-flow thermostat (37° C., 5% CO2) (Tokyo, Japan). A seed dose was 2×10^5 cells/ml in the starting inoculum or 2×10^4 cells/well. Herpes Simplex viruses were cultured under the same conditions in the MEM medium without serum (maintenance medium). Starting viral titers were 10^7 TCID50/ml.
For DMSO-soluble preparations, stock solutions were prepared in a concentration of 10 mM in DMSO. For water-soluble preparations, a stock solution prepared had the same concentration in the MEM medium (Minimal Essential Medium) for cell cultures. To control cytotoxicity (see below), the stock solution was diluted in the medium to a concentration of 100 μM and ten-fold serial dilutions of the preparations were made in the MEM medium (for DMSO-soluble compounds—in the MEM medium comprising 3% DMSO). The following concentrations of the preparations were used in the study of […]: if toxicity was not found, the concentrations of 100 μM preparations were 100, 10 and 1 μM; if toxicity was detected, the concentrations of 100 μM preparations were 10, 1, and 0.1 μM. Acyclovir (10 μg/ml) was used for Herpes Simplex viruses of both types as a reference preparation to control the viral model validity.
To study antiviral activity, plate wells with a cell monolayer were added with the preparations in an amount of 0.1 ml/well. To compensate a reduction in the concentration of the preparations, which takes place in the following addition of viruses, twofold concentrations of compounds (i.e. 200, 20 and 2 or 20, 2 and 0.2 μM for […] concentrations of 100 μM preparations, respectively) were used, incubated for an hour and then were infected with the examined 0.1 ml/well viruses in doses 1, 10 and 100 TCID50 (50% tissue infectious dose).
The virus-specific cytogenic action was manifested in an increase in the size of cells, their rounding, and detachment from a substrate. These morphological characteristics served as their marked difference from the cells subjected to a toxic action of high concentrations of the examined preparations. The latter acquired spindle-like shape, lost contacts with neighboring cells of the monolayer, and their boundaries became more distinct.
Intensity of the virus-specific changes in the cells were semi-quantified using a 4-score system: 0—CPA (cytopathogenic action) is not detected; 1—up to 25% virus-infected monolayer; 2—from 25% to 50%; 3—from 50% to 75%; and 4—from 75% to 100%. The antiviral activity of a compound was evaluated according to their ability to reduce the manifestation of cytopathogenic action in the plate wells compared to the control values. Differences with the control values by 1 score and more were considered to be significant.

[4] = HSV-2, virus dose 1, concentration 0.1 μM
[5] = HSV-2, virus dose 1, concentration 1 μM
[6] = HSV-2, virus dose 1, concentration 10 μM
[7] = HSV-2, virus dose 10, concentration 0.1 μM
[8] = HSV-2, virus dose 10, concentration 1 μM
[9] = HSV-2, virus dose 10, concentration 10 μM
[10] = HSV-2, virus dose 100, concentration 0.1 μM
[11] = HSV-2, virus dose 100, concentration 1 μM
[12] = HSV-2, virus dose 100, concentration 10 μM

| Molecule | MIC [1] [µM] | MIC [2] [µM] | manifestation of the virus CPA [3, 4] | manifestation of the virus CPA [3, 5] | manifestation of the virus CPA [3, 6] | manifestation of the virus CPA [3, 7] | manifestation of the virus CPA [3, 8] | manifestation of the virus CPA [3, 9] | manifestation of the virus CPA [3, 10] | manifestation of the virus CPA [3, 11] | manifestation of the virus CPA [3, 12] |
| --- | --- | --- | --- | --- | --- | --- | --- | --- | --- | --- | --- |
| 6,7-bis-(Amide N^α-Glycyl)-Protohemin (IX) [IV] | 0.39 | 50 | 1 (up to 25% virus-infected monolayer) | 0.5 scores | 0^1 | 2 (from 25% to 50%) | 2 (from 25% to 50%) | 0^1 | 3 (from 50% to 75%) | 3 (from 50% to 75%) | 0^1 |
| 6,7-bis-[(Diamide N^α-L-Arginyl)-L-glutamyl]-Protohemin (IX) | 3.12 | 6.25 | 1 (up to 25% virus-infected monolayer) | 0.5 scores | 0^1 | 2 (from 25% to 50%) | 2 (from 25% to 50%) | 1^1 (up to 25% virus-infected monolayer) | 3 (from 50% to 75%) | 3 (from 50% to 75%) | 3 (from 50% to 75%) |
| C=CC1=C(C)c2cc3[n-]c(cc4[n-]c(cc5nc(cc1n2)C(C)=C5C=C)c(C)c4CCC(=O)N[C@@H](CCCNC(=N)N)C(N)=O)c(CCC(=O)N[C@@H](CCCNC(=N)N)C(N)=O)c3C.[Cl-].[Fe+3] [II, 6,7-bis-(Amide N^α-Arginyl)-Protohemin (IX)] | 1.3 | 3.12 | 1 (up to 25% virus-infected monolayer) | 0.5 scores | 0^1 | 1.5 scores | 2 (from 25% to 50%) | 1^1 (up to 25% virus-infected monolayer) | 3 (from 50% to 75%) | 3 (from 50% to 75%) | 3 (from 50% to 75%) |
| C=CC1=C(C)c2cc3[n-]c(cc4[n-]c(cc5nc(cc1n2)C(C)=C5C=C)c(C)c4CCC(=O)N[C@@H](CO)C(N)=O)c(CCC(=O)N[C@@H](CO)C(N)=O)c3C.[Cl-].[Fe+3] [V, 6,7-bis-(Amide N^α-Seryl)-Protohemin (IX)] | 25 | 25 | 1 (up to 25% virus-infected monolayer) | 0.5 scores | 0^1 | 2 (from 25% to 50%) | 2 (from 25% to 50%) | 0^1 | 3 (from 50% to 75%) | 3 (from 50% to 75%) | 2^1 (from 25% to 50%) |
| C=CC1=C(C)c2cc3[n-]c(cc4[n-]c(cc5nc(cc1n2)C(C)=C5C=C)c(C)c4CCC(=O)N[C@@H](CO)C(=O)O)c(CCC(=O)N[C@@H](CO)C(=O)O)c3C.[Cl-].[Fe+3] [VI, 6,7-bis-(N^α-Seryl]-Protohemin (IX)] | >50.0 | >50.0 | 1 (up to 25% virus-infected monolayer) | 1 (up to 25% virus-infected monolayer) | 0^1 | 2 (from 25% to 50%) | 2 (from 25% to 50%) | 0^1 | 3 (from 50% to 75%) | 3 (from 50% to 75%) | 2^1 (from 25% to 50%) |
